# From ChEMBL document CHEMBL1126427, “Synthesis of a potent, reversible inhibitor of interleukin-1 converting enzyme” (Bioorg Med Chem Lett, 1992)
# Molecular target: T1, Caspase-1 (Homo sapiens, UniProt P29466)
# T1 sequence (P29466 whole entry): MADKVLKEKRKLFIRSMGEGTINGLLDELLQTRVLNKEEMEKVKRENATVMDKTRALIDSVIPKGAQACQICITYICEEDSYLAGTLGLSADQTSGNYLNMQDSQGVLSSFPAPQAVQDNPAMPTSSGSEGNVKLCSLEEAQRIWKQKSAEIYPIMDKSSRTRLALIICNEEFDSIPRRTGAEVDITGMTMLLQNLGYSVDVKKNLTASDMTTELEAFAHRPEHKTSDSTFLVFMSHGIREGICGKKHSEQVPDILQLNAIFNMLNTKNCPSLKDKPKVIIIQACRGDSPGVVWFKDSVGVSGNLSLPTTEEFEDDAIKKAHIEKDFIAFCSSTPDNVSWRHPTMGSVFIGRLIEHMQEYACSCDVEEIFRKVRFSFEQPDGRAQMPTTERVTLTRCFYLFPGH
# Experiment: The compound was tested for inhibition of IL-1 beta converting enzyme in whole human blood.
smiles,measurement,value
CC(=O)N[C@@H](Cc1ccc(O)cc1)C(=O)N[C@H](C(=O)N[C@@H](C)C(=O)N[C@H](C=O)CC(=O)O)C(C)C,Ki,0.76 nM
